Assay results reported in patent US7148211B2, “Formulation for lipophilic agents” (Genzyme Corporation, priority 2002, dated 2006).

Tests used:
[1] = system: patients with advanced androgen-independent prostate cancer; assay: Open-labeled clinical study of 1α,24-(OH)2D2 in advanced androgen-independent prostate cancer; type: in vivo; conditions: for progression of metastatic disease (CAT scans, X-rays, bone scans): second phase, after one and two years
Text: (§1) Patients with advanced androgen-independent prostate cancer participate in an open-labeled study of 1α,24-(OH)2D2. […] On admission to the study, patients begin a course of therapy with intravenous 1α,24-(OH)2D2 lasting 26 weeks, while discontinuing any previous use of calcium supplements, vitamin D supplements, and vitamin D hormone replacement therapies. During treatment, the patients are monitored at regular intervals for: (1) hypercalcemia, hyperphosphatemia, hypercalciuria, hyperphosphaturia and other toxicity; (2) evidence of changes in the progression of metastatic disease; and (3) compliance with the prescribed test drug dosage.
(§2) The study is conducted in two phases. During the first phase, the maximal tolerated dosage (MTD) of daily 1α,24-(OH)2D2 is determined by administering progressively higher dosages to successive groups of patients. All doses are administered in the morning before breakfast. The first group of patients is treated with 25.0 μg of 1α,24-(OH)2D2 (formulated with 2.5% w/w benzyl alcohol, 0.5%–2.5% w/w TWEEN™-20, and 20 ppm BHT). Subsequent groups of patients are treated with 50.0, 75.0 and 100.0 μg/day. Dosing is continued uninterrupted for the duration of the study unless serum calcium exceeds 11.6 mg/dL, or other toxicity of grade 3 or 4 is observed, in which case dosing is held in abeyance until resolution of the observed toxic effect(s) and then resumed at a level which has been decreased by 10.0 μg.
(§3) During the second phase, patients are treated with 1α,24-(OH)2D2 for 24 months at 0.5 and 1.0 times the MTD.

[2] = system: patients with advanced androgen-independent prostate cancer; assay: Study of Example 7 repeated for 1α-(OH)D2 in prostate cancer; type: in vivo, human; conditions: for progression of metastatic disease (CAT scans, X-rays, bone scans): phase two, after two years
Text: as §1, §2, §3
The study of Example 7 is repeated for the active vitamin D compound, 1α-(OH)D2 (formulated with 2.5% w/w benzyl alcohol, 0.5%–2.5% w/w TWEEN™-20, and 20 ppm BHT). […] In summary, the present invention provides an improved formulation for lipophilic drug agents that are only slightly soluble in an aqueous vehicle. The formulation in addition to the lipophilic drug agent includes a lipophilic antioxidant, a non-ionic solubilizer or surfactant, and optionally, an agent which is an organic solvent/ preservative.

[3] = system: elderly subjects with secondary hyperparathyroidism; assay: Open label study of elderly subjects with elevated blood PTH from secondary hyperparathyroidism; type: in vivo, human; conditions: oral 2.5 μg/day, twelve weeks
Procedure: Thirty elderly subjects with secondary hyperparathyroidism are enrolled in an open label study. The selected subjects have ages between 60 and 100 years and have elevated serum PTH levels (greater than the upper limit of young normal range). Subjects also have femoral neck osteopenia (femoral neck bone mineral density of […]).
Subjects are requested to keep a diet providing approximately 500 mg calcium per day without the use of calcium supplements. For a twelve week treatment period, subjects self-administer orally 2.5 μg/day 1α-OH-vitamin D2.(i.e., 2.5 μg doxercalciferol, 2.5% w/w benzyl alcohol, 0.5%–2.5% w/w TWEEN™-20, and 20 ppm BHT) At regular intervals throughout the treatment period, subjects are monitored for serum PTH levels, serum calcium and phosphorus, and urine calcium and phosphorus levels. Efficacy is evaluated by pre- and post-treatment comparisons of serum PTH levels. Safety is evaluated by serum and urine calcium and phosphorus values.

[4] = system: End Stage Renal Disease patients with secondary hyperparathyroidism; assay: Double-blind placebo-controlled study in ESRD hemodialysis patients exhibiting secondary hyperparathyroidism; type: in vivo, human
Text: Up to 120 ESRD (End Stage Renal Disease) patients undergoing chronic hemodialysis are studied in a multicenter, double-blind, placebo-controlled study based in two major U.S. metropolitan areas. The selected patients reside in two major metropolitan areas within the continental U.S., have ages between 20 and 75 years and have a history of secondary hyperparathyroidism. They have been on hemodialysis for at least four months, have a normal (or near normal) serum albumin, and have controlled serum phosphorus (often by using oral calcium phosphate binders).
On admission to the study, each patient is assigned at random to one of two treatment groups. One of these groups receives two consecutive 12-week courses of therapy with 1α-OH-vitamin D2 (doxercalciferol); the other receives a 12-week course of therapy with 1α-OH-vitamin D2 followed, without interruption, by a 12-week course of placebo therapy. Each patient discontinues any 1, α,25-(OH)2-vitamin D3 therapy for eight weeks prior to initiating 1α-OH-vitamin D2 therapy (daily dose of 4 μg doxercalciferol, formulated with 2.5% w/w benzyl alcohol, 0.5%–2.5% w/w TWEEN™-20, and 20 ppm BHT). Throughout this eight-week washout (or control) period and the two subsequent 12-week treatment periods, patients are monitored weekly for serum calcium and phosphorus. Serum intact PTH is monitored weekly or biweekly, and bone-specific serum markers, serum vitamin D metabolites, serum albumin, blood chemistries, hemoglobin and hematocrit are monitored at selected intervals.
During the study, patients undergo routine hemodialysis (three times per week) using a 1.24 mM calcium dialysate and ingest calcium phosphate binders (such as calcium carbonate or calcium acetate) in an amount sufficient to keep serum phosphate controlled (6.9 mg/dL). Patients who develop persistent mild hypercalcemia or mild hyperphosphatemia during the treatment periods reduce their 1α-OH-vitamin D2 to 4 μg three times per week (or lower). Patients who develop marked hypercalcemia or marked hyperphosphatemia immediately suspend treatment. Such patients are monitored at twice weekly intervals until the serum calcium or phosphorus is normalized, and resume 1α-OH-vitamin D2 dosing at a rate which is 4 μg three times per week (or lower).

[5] = treated with the MTD for at least six months

Row | Structure (SMILES) | circulating levels of 1α,25-(OH)2D2 ([1]; blood samples of patients treated with 1α,24-(OH)2D2) | dose dependence of levels of circulating 1α,24-(OH)2D2 ([1]; human, in vivo) | maximum levels of circulating 1α,24-(OH)2D2 ([1]; human, in vivo) | serum and urine calcium ([1]; human, in vivo) | progression of metastatic disease (CAT scans, X-rays, bone scans) ([1]; higher dosage (1.0 times the MTD)) | progression of metastatic disease (CAT scans, X-rays, bone scans) ([1]; lower dosage (0.5 times the MTD)) | bone pain associated with metastatic disease [1, 5] | progression of metastatic disease (CAT scans, X-rays, bone scans) ([2]; higher dosage) | progression of metastatic disease (CAT scans, X-rays, bone scans) ([2]; lower dosage) | bone pain associated with metastatic disease [2, 5] | PTH levels, pre- and post-treatment comparison [3] | incidence of hypercalcemia, hyperphosphatemia, hypercalciuria and hyperphosphaturia [3] | reduction of serum PTH levels (study conclusion) ([4]; ESRD patients) | mean serum PTH after initiation of dosing ([4]; ESRD patients, daily dose of 4 μg doxercalciferol formulated with benzyl alcohol, TWEEN-20, BHT) | safety compared with currently used therapies (study conclusion) ([4]; despite higher dosages and concurrent high levels of oral calcium phosphate binder) | serum levels of calcium and phosphorus ([4]; end of first 12-week treatment period, for end stage renal disease patients) | hypercalcemia ([4]; patients exhibiting excessive suppression of serum PTH, corrected by dosage reduction)
1 | C=C1/C(=C\C=C2/CCC[C@]3(C)[C@@H]([C@H](C)/C=C/C(C)(O)C(C)C)CC[C@@H]23)C[C@H](O)C[C@H]1O (stereo partly drawn) [1α,24-(OH)2D2, 1α,24-dihydroxyvitamin D2] | suppressed, often to undetectable levels | increase proportionately with the dosage administered | above 100 pg/mL | elevated in a dose responsive manner | stable disease and partial or complete remission in many patients | stable disease or partial remission in many patients | significantly diminished | – | – | – | – | – | – | – | – | – | –
2 | C=C1/C(=C\C=C2/CCC[C@]3(C)[C@@H]([C@H](C)/C=C/[C@H](C)C(C)C)CC[C@@H]23)C[C@@H](O)C[C@@H]1O [1α-OH-vitamin D2, 1α-hydroxyvitamin D2] | – | – | – | – | – | – | – | stable disease and partial or complete remission in many patients | stable disease or partial remission in many patients | significantly diminished | significantly reduce PTH levels | insignificant incidence | effective in reducing serum PTH levels | less than 50 % of pretreatment levels | safer than currently used therapies | normal or near normal | transient mild hypercalcemia is observed
